Assay results published in patent US12534439B2, “Xanthohumol derivatives and methods for making and using” (Oregon State University, priority 2021, dated 2026).

Tested on: HFD-fed C57BL/6J mice
Experiment: Untargeted cortex LC-MS metabolomics
Type: in vivo
Conditions: cortex of HFD-fed mice
Experimental: Plasma and Cortex LC-MS Metabolomics. The left and right sides of the cortex were pooled and ground using liquid nitrogen. Cortex samples (approximately 30 mg) were extracted as previously described with slight modifications. Tissues were homogenized with 600 μL of cold 80% acetonitrile with 0.1% formic acid containing 0.2 μg/mL of dopamine-d4 (Sigma-Aldrich, St Louis, MO, USA) and 0.2 μg/mL of chlorpropamide (Sigma-Aldrich, St Louis, MO, USA) using a counter-top bullet blender for 2 min and centrifuged at 20 000 rpm for 10 minutes. Supernatants were transferred to high performance liquid chromatography (HPLC) vials for analysis.
LC-high-resolution mass spectrometry/MS. Data dependent acquisition in both negative and positive ion mode was conducted using a Shimadzu Nexera UPLC system coupled to an AB SCIEX TripleTOF 5600 mass spectrometer (AB SCIEX, Toronto, Canada). Chromatographic separation was conducted using an Inertsil Phenyl-3 column (4.6×150 mm, 100 Å, 5 μm; GL Sciences, Tokyo, Japan). Spray voltage was −4200 V for negative ion mode and 4500 V for positive ion mode acquisition. The injection volume was 3 μL. Metabolite identifications were performed using Progenesis QI software (V2.4.6911) with METLIN plugin V1.0.6499 (NonLinear Dynamics, United Kingdom). Progenesis QI was used for peak picking, retention time correction, data normalization, peak alignment, and metabolite annotations. Metabolites were detected in both ion modes; the one with the lowest coefficient of variation of the QC was kept.

COc1cc(O)c(CC=C(C)C)c(O)c1-c1cc(-c2ccc(O)cc2)n(C)n1 [XP, 4-(5-(4-hydroxyphenyl)-1-methyl-1H-pyrazol-3-yl)-5-methoxy-2-(3-methylbut-2-en-1-yl)benzene-1,3-diol]
Ion intensities, Mean: 1,2-DIPALMITOYL-SN-GLYCEROL: 1513.84 | Ion intensities, Mean: 1-Arachidonoyl-glycerophosphoinositol: 546.96 | Ion intensities, Mean: 1-Palmitoyl-2-linoleoyl PE: 1180.62 | Ion intensities, Mean: 2-Pyrrolidinone: 1222.06 | Ion intensities, Mean: 2′-DEOXYURIDINE 5′-MONOPHOSPHATE: 594.66 | Ion intensities, Mean: 3-Methyl-L-histidine: 518.49 | Ion intensities, Mean: 3-PHOSPHO-GLYCERIC ACID: 2370.20 | Ion intensities, Mean: 5-Acetylamino-6-amino-3-methyluracil: 52.73 | Ion intensities, Mean: 5-Methylcytidine: 9448.98 | Ion intensities, Mean: 12-HYDROXYDODECANOIC-ACID: 2251.29 | Ion intensities, Mean: 20-Hydroxy-PGE2: 7093.39 | Ion intensities, Mean: 27-Hydroxycholesterol: 20090.45 | Ion intensities, Mean: ADENOSINE: 49823.74 | Ion intensities, Mean: ADENOSINE 5′-DIPHOSPHORIBOSE: 4312.21 | Ion intensities, Mean: ADENOSINE 5′-MONOPHOSPHATE: 90459.20 | Ion intensities, Mean: ADENOSINE-5′-DIPHOSPHOGLUCOSE: 1755.31 | Ion intensities, Mean: ADP: 3426.97 | Ion intensities, Mean: AMINOADIPATE: 331.86 | Ion intensities, Mean: ASCORBATE: 1431.15 | Ion intensities, Mean: ASPARTATE: 1333.10 | Ion intensities, Mean: Acetylcarnitine: 12649.68 | Ion intensities, Mean: Acetylcholine: 1745.95 | Ion intensities, Mean: Adenine: 1949.85 | Ion intensities, Mean: Adenylosuccinate: 1016.78 | Ion intensities, Mean: Adenylsuccinic acid: 3152.34 | Ion intensities, Mean: Arachidonic acid: 20901.19 | Ion intensities, Mean: Arachidonic acid ethyl ester: 351.43 | Ion intensities, Mean: Arginine: 2112.34 | Ion intensities, Mean: Aspartic acid: 8729.17 | Ion intensities, Mean: BILIVERDIN: 167.09 | Ion intensities, Mean: CARNITINE: 14584.14 | Ion intensities, Mean: CDP-Ethanolamine: 571.19 | Ion intensities, Mean: CHENODEOXYCHOLATE: 5735.03 | Ion intensities, Mean: CITRATE: 1682.49 | Ion intensities, Mean: CMP: 688.26 | Ion intensities, Mean: Carnosine: 1422.99 | Ion intensities, Mean: Choline: 8899.36 | Ion intensities, Mean: Creatine: 89712.34 | Ion intensities, Mean: Cysteineglutathione disulfide: 1531.40 | Ion intensities, Mean: Cytidine: 846.95 | Ion intensities, Mean: Cytidine 2′,3′-cyclic phosphate: 356.88 | Ion intensities, Mean: Cytidine diphosphate choline (CDPcholine): 2658.54 | Ion intensities, Mean: D-GLUCOSE 6-PHOSPHATE: 138.50 | Ion intensities, Mean: D-Glucaro-1,4-lactone: 1887.47 | Ion intensities, Mean: D-RIBOSE 5-PHOSPHATE: 136.10 | Ion intensities, Mean: DESMOSTEROL: 15551.25 | Ion intensities, Mean: DIHYDROOROTATE: 91.24 | Ion intensities, Mean: Deoxycytidine: 665.81 | Ion intensities, Mean: Deoxyguanosine: 2401.12 | Ion intensities, Mean: Docosahexaenoic acid: 2873.42 | Ion intensities, Mean: Docosenamide: 20845.53 | Ion intensities, Mean: Dodecanedioic acid: 333.82 | Ion intensities, Mean: ERUCIC ACID: 98.90 | Ion intensities, Mean: ETHANOLAMINE PHOSPHATE: 441.02 | Ion intensities, Mean: Ergothioneine: 515.38 | Ion intensities, Mean: Ethyl nicotinate: 81.18 | Ion intensities, Mean: GLUTAMIC ACID: 9048.31 | Ion intensities, Mean: GLUTAMINE: 22688.89 | Ion intensities, Mean: GUANOSINE 5′-MONOPHOSPHATE: 4141.69 | Ion intensities, Mean: Glutamate: 53559.34 | Ion intensities, Mean: Glutathione: 232313.32 | Ion intensities, Mean: Glycerophosphocholine: 124857.55 | Ion intensities, Mean: Guanosine monophosphate: 845.86 | Ion intensities, Mean: HEPTADECANOATE: 23.50 | Ion intensities, Mean: HISTIDINE: 1129.76 | Ion intensities, Mean: Homocarnosine: 689.23 | Ion intensities, Mean: Homoserine: 1034.62 | Ion intensities, Mean: Hydroxybutyric acid: 2833.09 | Ion intensities, Mean: Hydroxyphenethylamine: 4074.28 | Ion intensities, Mean: Hypoxanthine: 88.42 | Ion intensities, Mean: Hypusine: 196.91 | Ion intensities, Mean: ISOCITRIC ACID: 2051.66 | Ion intensities, Mean: ISOLEUCINE: 1578.44 | Ion intensities, Mean: Indoleacetaldehyde: 523.18 | Ion intensities, Mean: Inosine: 1409.62 | Ion intensities, Mean: Inosine 5′-monophosphate (IMP): 5581.09 | Ion intensities, Mean: Isostearic acid: 1901.95 | Ion intensities, Mean: L-2-Amino-5-hydroxypentanoicacid: 2343.03 | Ion intensities, Mean: L-OLEOYL-RAC-GLYCEROL: 2628.37 | Ion intensities, Mean: LACTATE: 3144.80 | Ion intensities, Mean: LAUROYLCARNITINE: 277.93 | Ion intensities, Mean: LEUKOTRIENE B4: 30.73 | Ion intensities, Mean: LYSINE: 107.27 | Ion intensities, Mean: Lathosterol: 14569.93 | Ion intensities, Mean: Lipoamide: 114.97 | Ion intensities, Mean: MALATE: 1664.52 | Ion intensities, Mean: Methionine: 2031.63 | Ion intensities, Mean: Methylthioadenosine: 3521.96 | Ion intensities, Mean: Myristoylcarnitine: 1303.77 | Ion intensities, Mean: N,N-dimethyl-Safingol: 578.09 | Ion intensities, Mean: N-(1-Deoxy-1-fructosyl) serine: 4331.01 | Ion intensities, Mean: N-ACETYL-L-ASPARTICACID: 25975.80 | Ion intensities, Mean: N-ACETYLNEURAMINATE: 1670.91 | Ion intensities, Mean: N-Acetyl-Glutamic acid: 205.45 | Ion intensities, Mean: N-Acetyl-L-alanine: 1909.11 | Ion intensities, Mean: N-Acetylaspartylglutamic acid: 2955.57 | Ion intensities, Mean: N-Acetylglutamine: 519.28 | Ion intensities, Mean: N-Acetylisoputreanine: 153.75 | Ion intensities, Mean: N-Acetyllactosamine: 273.32 | Ion intensities, Mean: N-Linoleoyl GABA: 54.12 | Ion intensities, Mean: N-Methyl-Glutamate: 2772.85 | Ion intensities, Mean: N-a-Acetyl-Arginine: 270.36 | Ion intensities, Mean: NAD: 1268.92 | Ion intensities, Mean: NE,NE,NE-TRIMETHYLLYSINE: 3943.68 | Ion intensities, Mean: Niacinamide: 5120.54 | Ion intensities, Mean: Nicotinamide adenine dinucleotide (NAD): 37985.70 | Ion intensities, Mean: O-Phosphoethanolamine: 302.71 | Ion intensities, Mean: Octadecenoic acid: 169.48 | Ion intensities, Mean: Oleamide: 3677.58 | Ion intensities, Mean: Oxidized glutathione: 4537.22 | Ion intensities, Mean: PALMITATE: 1211.29 | Ion intensities, Mean: PALMITOLEIC ACID: 39.36 | Ion intensities, Mean: PANTOTHENIC ACID: 524.89 | Ion intensities, Mean: PETROSELINIC ACID: 142.54 | Ion intensities, Mean: PHENYLALANINE: 2973.73 | Ion intensities, Mean: PHENYLETHANOLAMINE: 1559.27 | Ion intensities, Mean: Phenylpropionylglycine: 431.18 | Ion intensities, Mean: Phosphocholine: 23860.56 | Ion intensities, Mean: Phosphodimethyl-ethanolamine: 269.92 | Ion intensities, Mean: Pipecolic acid: 516.02 | Ion intensities, Mean: Propionylcarnitine: 540.78 | Ion intensities, Mean: Pyridoxamine-5′-Phosphate: 484.54 | Ion intensities, Mean: RAC-GLYCEROL-L-MYRISTATE: 283.53 | Ion intensities, Mean: S-Adenosylhomocysteine: 473.94 | Ion intensities, Mean: S-Adenosylmethionine: 18868.04 | Ion intensities, Mean: SERINE: 483.60 | Ion intensities, Mean: SUCCINATE: 304.14 | Ion intensities, Mean: Spermic acid 1: 199.76 | Ion intensities, Mean: Spermidine: 7809.52 | Ion intensities, Mean: Sphinganine: 23.16 | Ion intensities, Mean: Sphinganine 1-phosphate: 1966.99 | Ion intensities, Mean: Sphingosine: 1163.81 | Ion intensities, Mean: Stearoylglycerophosphoserine: 1831.40 | Ion intensities, Mean: Succinyladenosine: 217.97 | Ion intensities, Mean: TAURINE: 6801.22 | Ion intensities, Mean: THEOPHYLLINE: 18.56 | Ion intensities, Mean: TRYPTOPHAN: 1355.41 | Ion intensities, Mean: Tetradecanedioic acid: 115.20 | Ion intensities, Mean: Tetrahydrodeoxycortisol: 2674.78 | Ion intensities, Mean: Threoninyl-Alanine: 295.96 | Ion intensities, Mean: Tyrosine: 6818.63 | Ion intensities, Mean: URIDINE: 1161.25 | Ion intensities, Mean: URIDINE 5′-DIPHOSPHOGALACTOSE: 1728.73 | Ion intensities, Mean: URIDINE-5-MONOPHOSPHATE: 3704.01 | Ion intensities, Mean: Undecanedicarboxylic acid: 219.08 | Ion intensities, Mean: Uracil: 225.61 | Ion intensities, Mean: Uridine 5′-diphosphate: 422.30 | Ion intensities, Mean: Xanthine: 155.79 | Ion intensities, Mean: cyclic GMP-AMP: 2077.75 | Ion intensities, Mean: diethyltoluamide: 5.17 | Ion intensities, Mean: docosa-hexaenoic acid: 1911.88 | Ion intensities, Mean: hydroxyhexadecanoyl carnitine: 1048.02 | Ion intensities, Mean: hydroxyvitamin D3: 21210.39 | Ion intensities, Mean: sn-glycero-3-Phosphoethanolamine: 994.53
